Data as given in patent US7563787B2, “Substituted pyrazole compounds” (Miikana Therapeutics, Inc., priority 2005, dated 2009).

Key:
Assay type in all cases: biochemical
[1] = molecular target: T1, FGFR1 (Homo sapiens, UniProt P11362); test: Kinase Selectivity Assay; conditions: read-out: Percent Inhibition at 1 μM; note: ATP at apparent Km or 100 µM
T1 construct: purchased Invitrogen, Carlsbad, Calif
Protocol: (§1) Compounds were assayed for inhibitory activity against a panel of different kinase enzymes at a concentration of 1 μM. Where appropriate, full-length enzymes or catalytically active fragments, with N-terminal or C-terminal His- or GST-tags, were used (Invitrogen, Carlsbad, Calif.). Test compounds were initially diluted to 100× test concentration in 100% DMSO. This 100× concentration was then diluted to a 4× working concentration in Kinase Buffer (50 mM HEPES pH 7.5, 0.01% Brij-35, 10 mM MgCl2, 1 mM EGTA) and 2.5 μL was then added to a low volume NBS, 384-well plate (Corning, Corning, N.Y.). Five μL of a 2× peptide/kinase mixture (Invitrogen, Carlsbad, Calif.), as appropriate (listed in Table 3), was then added and the reaction was then initiated by addition of 2.5 μL of a 4× working concentration of ATP in Kinase Buffer.

[2] = molecular target: T2, ABL1 (Homo sapiens, UniProt P00519); test: Kinase Selectivity Assay; conditions: read-out: Percent Inhibition at 1 μM; note: ATP at apparent Km or 100 µM
T2 construct: purchased Invitrogen, Carlsbad, Calif
Protocol: as §1

[3] = molecular target: T3, ABL1 T315I (Homo sapiens, UniProt P00519, T315I); test: Kinase Selectivity Assay; conditions: read-out: Percent Inhibition at 1 μM; note: ATP at apparent Km or 100 µM
T3 construct: purchased Invitrogen, Carlsbad, Calif
Protocol: as §1

[4] = molecular target: T4, PTK2 (FAK) (Homo sapiens, UniProt Q05397); test: Kinase Selectivity Assay; conditions: read-out: Percent Inhibition at 1 μM; note: ATP at apparent Km or 100 µM
T4 construct: full-length enzymes or catalytically active fragments; purchased Invitrogen
T4 sequence (Q05397 whole entry, the tested form may be a part): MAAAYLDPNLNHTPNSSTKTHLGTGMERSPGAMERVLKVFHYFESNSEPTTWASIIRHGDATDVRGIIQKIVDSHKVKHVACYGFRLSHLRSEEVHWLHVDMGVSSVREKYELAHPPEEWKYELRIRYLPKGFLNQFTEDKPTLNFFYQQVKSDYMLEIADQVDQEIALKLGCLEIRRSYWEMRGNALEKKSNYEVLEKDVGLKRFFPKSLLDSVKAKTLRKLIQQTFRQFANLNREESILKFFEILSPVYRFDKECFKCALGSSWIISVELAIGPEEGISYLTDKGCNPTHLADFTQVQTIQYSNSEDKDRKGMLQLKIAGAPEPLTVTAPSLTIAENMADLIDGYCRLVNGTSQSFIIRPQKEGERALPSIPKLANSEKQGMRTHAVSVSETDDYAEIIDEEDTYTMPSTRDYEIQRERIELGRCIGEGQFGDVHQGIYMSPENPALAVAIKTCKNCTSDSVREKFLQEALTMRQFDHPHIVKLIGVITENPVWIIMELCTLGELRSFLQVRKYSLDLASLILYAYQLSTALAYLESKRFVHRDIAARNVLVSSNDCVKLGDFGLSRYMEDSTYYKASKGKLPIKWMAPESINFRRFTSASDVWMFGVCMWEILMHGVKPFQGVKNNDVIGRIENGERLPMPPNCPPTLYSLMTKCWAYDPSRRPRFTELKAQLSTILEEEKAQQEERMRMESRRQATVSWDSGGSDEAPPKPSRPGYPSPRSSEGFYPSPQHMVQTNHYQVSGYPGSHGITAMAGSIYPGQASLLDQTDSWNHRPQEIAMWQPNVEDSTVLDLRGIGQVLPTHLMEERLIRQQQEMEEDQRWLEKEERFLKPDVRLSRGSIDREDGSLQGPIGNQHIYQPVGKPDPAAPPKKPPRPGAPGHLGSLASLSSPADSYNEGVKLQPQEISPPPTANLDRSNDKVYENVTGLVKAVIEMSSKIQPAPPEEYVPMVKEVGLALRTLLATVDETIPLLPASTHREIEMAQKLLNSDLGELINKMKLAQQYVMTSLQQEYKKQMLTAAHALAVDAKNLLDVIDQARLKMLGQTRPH
Protocol: as §1

[5] = molecular target: T5, ABL1 Y253F (Homo sapiens, UniProt P00519, Y253F); test: Kinase Selectivity Assay; conditions: read-out: Percent Inhibition at 1 μM; note: ATP at apparent Km or 100 µM
T5 construct: purchased Invitrogen, Carlsbad, Calif
Protocol: as §1

[6] = molecular target: T6, ABL1 G250E (Homo sapiens, UniProt P00519, G250E); test: Kinase Selectivity Assay; conditions: read-out: Percent Inhibition at 1 μM; note: ATP at apparent Km or 100 µM
T6 construct: purchased Invitrogen, Carlsbad, Calif
Protocol: as §1

[7] = molecular target: T7, LCK (Homo sapiens, UniProt P06239); test: Kinase Selectivity Assay; conditions: read-out: Percent Inhibition at 1 μM; note: ATP at apparent Km or 100 µM
T7 construct: full-length enzymes or catalytically active fragments; purchased Invitrogen
T7 sequence (P06239 whole entry, the tested form may be a part): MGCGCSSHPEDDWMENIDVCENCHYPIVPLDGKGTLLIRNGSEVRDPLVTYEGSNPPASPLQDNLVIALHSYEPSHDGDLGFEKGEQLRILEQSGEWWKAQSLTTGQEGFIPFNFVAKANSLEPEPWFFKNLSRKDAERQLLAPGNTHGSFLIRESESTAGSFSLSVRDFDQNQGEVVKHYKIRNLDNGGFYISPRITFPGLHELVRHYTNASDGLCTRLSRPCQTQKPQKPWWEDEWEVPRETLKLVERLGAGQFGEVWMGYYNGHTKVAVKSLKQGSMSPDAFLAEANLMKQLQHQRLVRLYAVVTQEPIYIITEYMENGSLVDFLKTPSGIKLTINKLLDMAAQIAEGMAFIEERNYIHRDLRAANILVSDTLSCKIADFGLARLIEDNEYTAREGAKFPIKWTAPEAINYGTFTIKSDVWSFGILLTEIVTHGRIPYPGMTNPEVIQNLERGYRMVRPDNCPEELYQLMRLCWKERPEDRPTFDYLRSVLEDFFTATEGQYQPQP
Protocol: as §1

[8] = molecular target: T8, recombinant human KDR, residues 790-end (Homo sapiens, UniProt P35968); test: KDR Kinase Inhibition Assay; conditions: read-out: inhibition of KDR at a concentration of 1 μM
T8 construct: recombinant human KDR, residues 790-end; His6 (N); purchased Upstate USA Inc, Charlottesville, Va
T8 sequence (P35968 790-1356 limits assumed): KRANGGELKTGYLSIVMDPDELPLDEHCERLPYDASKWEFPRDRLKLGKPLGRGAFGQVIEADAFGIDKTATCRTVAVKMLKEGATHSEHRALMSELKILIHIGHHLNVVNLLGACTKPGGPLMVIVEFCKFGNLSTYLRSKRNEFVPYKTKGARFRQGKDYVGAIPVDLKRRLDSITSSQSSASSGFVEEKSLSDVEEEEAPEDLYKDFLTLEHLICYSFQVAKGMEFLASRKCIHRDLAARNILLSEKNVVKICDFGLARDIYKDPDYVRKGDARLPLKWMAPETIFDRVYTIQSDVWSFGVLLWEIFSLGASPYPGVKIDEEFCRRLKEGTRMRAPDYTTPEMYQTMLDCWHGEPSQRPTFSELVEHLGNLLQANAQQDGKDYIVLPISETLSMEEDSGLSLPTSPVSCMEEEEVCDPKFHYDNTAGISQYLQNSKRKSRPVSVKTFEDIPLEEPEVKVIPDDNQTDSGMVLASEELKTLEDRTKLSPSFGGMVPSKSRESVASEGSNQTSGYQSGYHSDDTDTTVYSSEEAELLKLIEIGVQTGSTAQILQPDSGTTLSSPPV
Protocol: Compounds were assayed for KDR kinase inhibitory activity using N-terminal His6-tagged recombinant human KDR, residues 790-end (Upstate USA Inc, 706 Forest Street, Charlottesville, Va.). Serial dilutions of compound were assayed in a final reaction volume of 25 μL by incubating a solution of the above KDR kinase (5-10 mU), 8 mM MOPS (3-(N-morpholino) propanesulfonic acid) pH 7.0, 0.2 mM EDTA (ethylenediamine tetracetic acid), 0.33 mg/mL myelin basic protein (Upstate USA Inc, 706 Forest Street, Charlottesville, Virginia), and 10 mM magnesium acetate and [γ-^33P-ATP] (specific activity of about 500 cpm/pmol, concentration as required). The reaction was initiated by the addition of the magnesium acetate and [γ-^33P-ATP] mixture. After incubation for 40 minutes at room temperature, the reaction was stopped by the addition of 5 μL of a 3% phosphoric acid solution. A 10 μL aliquote of the reaction was then spotted onto a P30 filtermat (PerkinElmer, Wellesley, Mass.) and washed three times for five minutes in 75 mM phosphoric acid and once in methanol prior to drying and scintillation counting. Inhibition of KDR activity was determined by comparison to assays that contained no inhibitor.

[9] = molecular target: T9, recombinant human Flt3, residues 564-end (Homo sapiens, UniProt P36888); test: Flt3 Kinase Inhibition Assay; conditions: read-out: inhibition of Flt3 at a concentration of 1 μM; 1 μM compound; 33P-ATP filter assay
T9 construct: recombinant human Flt3, residues 564-end; GST (N); purchased Upstate USA Inc, Charlottesville, Va
T9 sequence (P36888 564-993 limits assumed): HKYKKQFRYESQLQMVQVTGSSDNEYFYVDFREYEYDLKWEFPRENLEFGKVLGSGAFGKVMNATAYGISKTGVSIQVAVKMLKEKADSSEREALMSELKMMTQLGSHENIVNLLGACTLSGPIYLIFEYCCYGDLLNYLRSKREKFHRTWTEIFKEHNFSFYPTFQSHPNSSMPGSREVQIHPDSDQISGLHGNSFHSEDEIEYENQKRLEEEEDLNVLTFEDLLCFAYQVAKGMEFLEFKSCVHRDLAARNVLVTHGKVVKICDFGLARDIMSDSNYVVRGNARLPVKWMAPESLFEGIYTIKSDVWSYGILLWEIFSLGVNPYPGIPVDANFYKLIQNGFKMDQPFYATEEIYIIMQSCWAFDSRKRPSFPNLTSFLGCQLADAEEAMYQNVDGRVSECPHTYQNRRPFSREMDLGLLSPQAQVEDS
Protocol: Compounds were assayed for Flt3 kinase inhibitory activity using N-terminal GST-tagged recombinant human Flt3, residues 564-end (Upstate USA Inc, 706 Forest Street, Charlottesville, Va.). Serial dilutions of compound were assayed in a final reaction volume of 25 μL by incubating a solution of the above Flt3 kinase (5-10 mU), 8 mM MOPS (3-(N-morpholino) propanesulfonic acid) pH 7.0, 0.2 mM EDTA (ethylenediamine tetracetic acid), 50 μM amino acid sequence [sequence] (SEQ ID NO: 1)(Upstate USA Inc, 706 Forest Street, Charlottesville, Va.), and 10 mM magnesium acetate and [γ-^33P-ATP] (specific activity of about 500 cpm/pmol, concentration as required). The reaction was initiated by the addition of the magnesium acetate and [γ-^33P-ATP] mixture. After incubation for 40 minutes at room temperature, the reaction was stopped bythe addition of 5 μL of a 3% phosphoric acid solution. A 10 μL aliquote of the reaction was then spotted onto a P30 filtermat (PerkinElmer, Wellesley, Mass.) and washed three times for five minutes in 75 mM phosphoric acid and once in methanol prior to drying and scintillation counting. Inhibition of Flt3 activity was determined by comparison to assays that contained no inhibitor.

T1 sequence (P11362 22-822): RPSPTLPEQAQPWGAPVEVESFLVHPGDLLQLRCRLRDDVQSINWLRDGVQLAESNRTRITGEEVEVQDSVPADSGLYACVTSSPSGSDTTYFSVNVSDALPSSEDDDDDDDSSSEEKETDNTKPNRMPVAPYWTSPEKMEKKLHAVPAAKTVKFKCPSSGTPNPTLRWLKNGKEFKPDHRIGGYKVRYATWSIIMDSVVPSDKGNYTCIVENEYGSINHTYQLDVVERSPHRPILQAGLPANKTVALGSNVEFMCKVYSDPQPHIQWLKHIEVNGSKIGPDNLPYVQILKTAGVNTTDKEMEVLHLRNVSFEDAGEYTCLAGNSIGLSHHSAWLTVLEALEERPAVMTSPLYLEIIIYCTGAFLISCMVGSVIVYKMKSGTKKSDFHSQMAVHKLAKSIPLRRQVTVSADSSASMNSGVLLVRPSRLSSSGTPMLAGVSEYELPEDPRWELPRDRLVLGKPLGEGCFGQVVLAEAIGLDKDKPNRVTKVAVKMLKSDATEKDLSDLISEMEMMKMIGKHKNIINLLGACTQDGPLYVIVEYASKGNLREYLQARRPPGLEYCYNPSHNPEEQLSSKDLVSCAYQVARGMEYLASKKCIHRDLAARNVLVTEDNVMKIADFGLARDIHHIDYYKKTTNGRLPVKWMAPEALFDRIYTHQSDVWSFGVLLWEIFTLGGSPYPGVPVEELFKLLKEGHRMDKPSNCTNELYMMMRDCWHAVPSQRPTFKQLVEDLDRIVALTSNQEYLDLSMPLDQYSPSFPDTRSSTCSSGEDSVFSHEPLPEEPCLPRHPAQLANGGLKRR

inhibition at 1 µM [1] | inhibition at 1 µM [2] | inhibition at 1 µM [3] | inhibition at 1 µM [4] | inhibition at 1 µM [5] | inhibition at 1 µM [6] | inhibition at 1 µM [7] | SMILES | inhibition at 1 µM [8] | inhibition at 1 µM [9]
46% | 54% | 79% | 81% | 57% | 60% | 81% | Cc1cc(Nc2nc(/C=C/c3ccccc3)nc(N3CCN(C)CC3)c2N)[nH]n1 [Example 10, 6-(4-methylpiperazin-1-yl)-N-(3-methyl-1H-pyrazol-5-yl)-2-[(E)-2-phenylvinyl]pyrimidin-4,5-diamine] |  | 
 |  |  |  |  |  |  | Cc1cc(Nc2cc(N3CCN(C)CC3)nc(/C=C/c3ccccc3)n2)n[nH]1 [Example 31, 6-(4-methylpiperazin-1-yl)-N-(3-methyl-1H-pyrazol-5-yl)-2-[(E)-2-phenylvinyl]pyrimidin-4-amine] | ~94% | ~96%
